This note sets out measurements from patent US20230322805A1, “NOVEL PYRIMIDODIAZEPINE DERIVATIVES OR USES THEREOF” (SPARK BIOPHARMA, INC., priority 2020, published 2023).

The series in a line: Pharmacokinetics test in male ICR mice. Format: in vivo. To be noted: CD-1 (ICR), mouse, plasma, 5 mg/kg; for half-life: male. The method, then:
After intravenous or intraperitoneal administration (5 mg/kg, 3.3 mL/kg) of the compound (SB1617, 5% DMSO/[…]) according to the present invention to CD-1 (ICR) male mice (7 weeks old, KOATECH, Korea), blood was collected at designated time points from the orbital venous plexus. The concentration of the compound (SB1617) according to the present invention was examined from the plasma samples using an LC-MS/MS analyzer (Agilent 1200, 4000 Qtrap). Pharmacokinetic parameters were obtained from plasma concentration-time plots using WinNonlin software (Pharsight, USA).
6-1. In order to evaluate the suitability of the compound (SB1617) according to this invention in vivo, pharmacokinetic properties and blood-brain barrier penetration properties were identified using male ICR mice according to the methods described in Examples 1-15 and 1-16.

Molecules are shown by their SMILES. Where two headings read alike, the source gives them in different places.

As a reminder, the AUC(0-inf) is the area under the concentration-time curve extrapolated to infinity. High values mean high exposure, low ones low exposure. As usually defined, the AUC(0-t) is exposure summed from dosing to a finite time, without extrapolation to infinity. A high value points to more exposure. The term Cmax denotes the peak of the concentration-time curve. As usually defined, the Tmax is the time at which the peak concentration occurs. As a reminder, the clearance is the volume of plasma or blood freed of the substance per unit of time. Low readings indicate inefficient removal, high ones efficient removal. For `CN(Cc1ccc(Cl)cc1)c1ncnc2c1[C@@H]1OC[C@H](CN2)N1S(=O)(=O)c1ccc([N+](=O)[O-])cc1` [Compound 117], for the setting “ip, I.P.”, the AUC(0-inf) was determined as 5650 ± 3320 ng·h/mL, the AUC(0-t) amounted to 6070 ± 2810 ng·h/mL, the peak level (Cmax) was 857 ± 339 ng/mL and the Tmax turned out to be 1.67 ± 2.02 h. Further, where the note is “iv, I.V.”, the AUC(0-inf) turned out to be 4490 ± 150 ng·h/mL, the area under the curve AUC(0-t) came to 4190 ± 112 ng·h/mL and the clearance was 18.7 mL/min/kg. Besides, where the note is “iv, I.V., read-out: Vss”, the Vd stood at 6.27 ± 0.928 L/kg. In addition, the half-life (ip, I.P., read-out: T1/2 (converted)) is 6.57 ± 0.0563 h. Besides, under “ip, intraperitoneal injection, read-out: half-life (converted)”, the half-life is around 6.6 h. Under “iv, I.V., read-out: T1/2 (converted)”, the half-life is 5.51 ± 1.86 h.
